The numbers were not newly measured in US4361545A (Rowell Laboratories, Inc., priority 1981, dated 1982), which cites them from elsewhere.

As for `Cn1c(=O)c2[nH]cnc2n(C)c1=O` [theophylline], the solubility result is “low to moderate solubility”.
